The target in the assay is T1, GST P1-1 (Homo sapiens, UniProt P09211).
T1 construct: purchased Sigma-Aldrich
Kind of assay: High-throughput GST P1-1 inhibition assay (384-well screen, CDNB/GSH). The note with it: compound 10 μM; score 0 = negative control (DMSO), 1 = positive control (EA 50 μM); average of duplicate. The assay is classed as biochemical. As for the experimental part:
Each drug compound was added to the respective well at a volume of 80 nL of 10 mM stock solution in DMSO, yielding a final compound concentration of 10 μM and a final DMSO concentration of 0.1%. Each plate’s first and last two columns were used as negative (no compound added – 80 nL per well of DMSO) and positive (80 nL of EA added with a final concentration of 50 μM) controls, respectively. The Gyger Certus Flex dispenser was set up using a freshly prepared 1 mM of GSH and 20 nM of GST P1-1, pH 7.4, in one syringe and 8 mM CDNB solution in pure ethanol in the other syringe. Into each well 80 μL of GST-GSH solution was dispensed and incubated at 25°C for 20 minutes before the reaction was initiated by the addition of 4 μL of CDNB solution. The plates were incubated for 2 h in the dark at 25°C and then the absorbance was of each well recorded on a BioTek Synergy NEO HTS multimode plate reader (Agilent®) at a wavelength of 340 nm.
The z’factor was calculated for each plate according to Zhang et al.. The Z-factor is a dimensionless, simple statistical characteristic for each HTS assay. This provides a valuable tool for the comparison and assessment of the quality of assays, and can be utilized in assay optimization and validation. For each plate, the concentration of product was normalized by assigning a score of 0 (0%) to the negative control (average of maximal concentration of product measured in the presence of enzyme without any inhibitor) and a score of 1 (100%) was assigned to the positive control (average minimal concentration of product measured in the presence of enzyme with the reference inhibitor, i.e., EA). The experiment was performed in duplicate and the score for each drug compound was calculated as an average ± standard deviation. […] An internal laboratory information management system (LIMS) was used for basic data processing, management, visualization, and statistical hit validation.

T1 sequence (P09211 2-210 limits assumed): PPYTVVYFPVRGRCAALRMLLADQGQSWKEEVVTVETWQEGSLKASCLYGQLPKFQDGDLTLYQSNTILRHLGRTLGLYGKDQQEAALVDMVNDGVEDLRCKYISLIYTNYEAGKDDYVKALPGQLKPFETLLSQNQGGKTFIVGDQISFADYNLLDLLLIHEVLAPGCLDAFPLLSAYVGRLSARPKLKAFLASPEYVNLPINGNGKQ

Turning to `O=C(O)C(Cc1ccccc1[N+](=O)[O-])=NNc1nc(-c2ccc(Cl)c(Cl)c2)cs1` (mixture of isomers) [4EGI-1], the Score is recorded as 0.730. The result for `CC#C[C@@H](CC(=O)[O-])c1ccc(OCc2cccc(-c3ccc(C(F)(F)F)cc3)c2)cc1.CC#C[C@@H](CC(=O)[O-])c1ccc(OCc2cccc(-c3ccc(C(F)(F)F)cc3)c2)cc1.O.[Ca+2]` [AMG 837 (calcium hydrate)] reads 0.783.

With `NC[C@@](O)(c1ccc(Cl)cc1)c1ccc(-c2cn[nH]c2)cc1` [AT13148], the Score is listed as 0.738. Regarding `O=C1c2c(O)cccc2Cc2cccc(O)c21` [Anthralin], the Score turned out to be 0.694.

On to `CC(C)(c1ccc(OCC2CO2)cc1)c1ccc(OCC2CO2)cc1` (stereo not drawn) [BADGE], for which the Score amounted to 0.715. The result for `Oc1c(Cl)cc(Cl)cc1Sc1cc(Cl)cc(Cl)c1O` [Bithionol] reads 1.007; that for `O=C1C=Cc2cc(Br)ccc2C1=O` [Bonaphthone], 0.770; that for `CCN(CC)c1ccc(C(=C2C=CC(=[N+](CC)CC)C=C2)c2ccccc2)cc1` [Brilliant-green], 0.783. The result for `CCOC(=O)Nc1cc(-c2ccc(C)c(NS(C)(=O)=O)c2)nn2c(C)nnc12` [Bromosporine] reads 0.801. `CC(C)(C)c1ccc(CN2CCN(C(c3ccccc3)c3ccc(Cl)cc3)CC2)cc1` (stereo not drawn) [Buclizine]: the Score was 0.694. For `O=C(O)c1ccc(-c2ccc3cc(O)c(C45CC6CC(CC(C6)C4)C5)cc3c2)cc1` [CD-1530], the Score is listed as 0.979. With `O=C(O)C1(c2ccc(-c3ccc(Cl)c(Cl)c3)c(F)c2)CC1` [CHF5074], the Score came out at 0.911. The figure for `COc1cc(-c2ccc(N=Nc3ccc4c(S(=O)(=O)[O-])cc(S(=O)(=O)[O-])c(N)c4c3O)c(OC)c2)ccc1N=Nc1ccc2c(S(=O)(=O)[O-])cc(S(=O)(=O)[O-])c(N)c2c1O.[Na+].[Na+].[Na+].[Na+]` [Chicago sky blue 6B] is 0.863; for `CCCCCC/C=C/C=C\CCCCCCCC(=O)O` [Cis-9,trans-11-Conjugated-linoleic-acid] it is 0.796.

Take `O=c1c(-c2ccccc2)c1-c1ccccc1` [Diphencyprone]: the Score is listed as 0.744. The figure for `CC/C=C\C/C=C\C/C=C\C/C=C\C/C=C\C/C=C\CCC(=O)O` [Docosahexaenoic Acid] is 0.821; for `CC(C)c1cccc2c(-c3ccccc3)cc(-c3ccc(-c4ccc(C(=O)O)cc4)[nH]3)nc12` [ER-50891] it is 0.927; for `CC1=NN(c2ccccc2)C(=O)C1` [Edaravone] it is 0.958. The result for `O=C1OC2(c3ccccc31)c1cc(I)c(O)c(I)c1Oc1c2cc(I)c(O)c1I` [Erythrosine] reads 0.828. The figure for `Cc1cc(-c2ccc(/N=N/c3ccc4c(S(=O)(=O)O)cc(S(=O)(=O)O)c(N)c4c3O)c(C)c2)ccc1/N=N/c1ccc2c(S(=O)(=O)O)cc(S(=O)(=O)O)c(N)c2c1O` [Evans Blue] is 0.783; for `CCOc1c2c(c(OCC)c3ccccc13)C(=O)N(c1ccc(CC(=O)NS(=O)(=O)c3ccccc3)cc1)C2` [GW627368] it is 0.854; for `CC(C)c1onc(-c2c(Cl)cccc2Cl)c1COc1ccc(/C=C/c2cccc(C(=O)O)c2)c(Cl)c1` [GW 4064] it is 0.702. With `CC1=C(CCC(=O)O)c2cc3[nH]c(cc4nc(cc5[nH]c(cc1n2)c(C)c5C(C)O)C(C)=C4C(C)O)c(C)c3CCC(=O)O` (stereo not drawn) [Hematoporphyrin], the Score amounted to 0.758. As to `O=C(NCc1ccc(Oc2ccccc2)cc1)c1nc(-c2cc(Br)c(O)c(Br)c2)no1` [IOWH-032], the Score was found to be 0.901. Take `Oc1ccc2ccccc2c1SSc1c(O)ccc2ccccc12` [IPA-3]: the Score is on record as 0.881. The figure for `C=CC(=O)c1ccc2ccccc2c1` [JAK3-inhibitor-V] is 0.817. `Cc1noc(-c2ccc(CSCCC(=O)O)cc2)c1NC(=O)OC(C)c1ccccc1Cl` (stereo not drawn) [Ki16425]: the Score is listed as 0.710.

In the case of `CC[C@@H](C(=O)[C@@H](C)[C@@H](O)[C@H](C)CCc1ccc(C)c(O)c1C(=O)O)[C@H]1O[C@](CC)([C@H]2CC[C@](O)(CC)[C@H](C)O2)C[C@@H]1C` [Lasalocid], the Score amounted to 0.863. The result for `O=[N+]([O-])/C=C/c1ccc2c(c1)OCO2` [MNS] reads 0.850. The figure for `COc1cc(C[C@H](C)[C@H](C)Cc2ccc3c(c2)OCO3)ccc1O` [Macelignan] is 0.803; for `O=C([O-])c1ccccc1-c1c2cc(Br)c(=O)cc-2oc2[c]([Hg+])c([O-])c(Br)cc12.[Na+].[Na+].[OH-]` [Merbromin] it is 0.993. On to `Cc1cc(=O)n(-c2ccccc2)[nH]1` [N-demethylantipyrine], for which the Score was found to be 1.019. Turning to `O=C(Nc1cccc(C(F)(F)F)c1)Nc1ccc(Br)cc1-c1nn[nH]n1` [NS-3623], the Score was determined as 0.752. The figure for `CCCCCCCCCCCCc1ccc(S(=O)(=O)Nc2nncs2)cc1` [PHT-427] is 0.696. Consider `CC1(C)CCC(C)(C)c2cc(Cn3cccn3)c(/C=C/c3ccc(C(=O)O)cc3)cc21` [Palovarotene], for which the Score worked out at 0.763. Regarding `C=CC1=C(C)c2cc3[nH]c(cc4nc(cc5[nH]c(cc1n2)c(C)c5CCC(=O)O)C(CCC(=O)O)=C4C)c(C)c3C=C` [Protoporphyrin IX], the Score turned out to be 0.914. With `CC1(C)CC[C@]2(NC(=O)C(C)(F)F)CC[C@]3(C)[C@H](C(=O)C=C4[C@@]5(C)C=C(C#N)C(=O)C(C)(C)[C@@H]5CC[C@]43C)[C@@H]2C1` [RTA-408], the Score is reported as 0.807. Regarding `O=C1OC2(c3cc(I)c(O)c(I)c3Oc3c2cc(I)c(O)c3I)c2c(Cl)c(Cl)c(Cl)c(Cl)c21` [Rose-bengal-lactone], the Score was 0.937.

Consider `O=C1OC2(c3cc(I)c(O)c(I)c3Oc3c2cc(I)c(O)c3I)c2c(Cl)c(Cl)c(Cl)c(Cl)c21` [Rse-bengal], for which the Score was 0.996. The result for `N[C@@H](Cc1cc(-c2ccc(Cl)cc2Cl)cc(CP(=O)(O)O)c1O)C(=O)O` [SDZ-220-040] reads 0.871; that for `Oc1ccc(Nc2nc(-c3ccc(Cl)cc3)cs2)cc1` [SKI II], 0.694. Regarding `CC1=C(/C=C/C(=C/C=C/C(C)=C/C(=O)O)c2ccc(C)cc2)C(C)(C)CCC1` [SR-11302], the Score worked out at 0.733. The figure for `O=C(/C=C/c1ccccc1)NC(NC(=S)Nc1ccc(Cl)cc1)C(Cl)(Cl)Cl` (stereo not drawn) [Sal003] is 0.865; for `CC(C)=CCC/C(C)=C/CC/C(C)=C/CSc1ccccc1C(=O)O` [Salirasib] it is 0.717; for `O=C1C(CC[S+]([O-])c2ccccc2)C(=O)N(c2ccccc2)N1c1ccccc1` (stereo not drawn) [Sulfinpyrazone] it is 0.823. The figure for `O=S(=O)(O)c1ccc(-c2c3nc(c(-c4ccc(S(=O)(=O)O)cc4)c4ccc([nH]4)c(-c4ccc(S(=O)(=O)O)cc4)c4nc(c(-c5ccc(S(=O)(=O)O)cc5)c5ccc2[nH]5)C=C4)C=C3)cc1` [TPPS4] is 0.809. Regarding `Cc1c(S(=O)(=O)O)oc2c1C(=O)C(=O)c1c-2ccc2c1CCCC2(C)C` [Tanshinone IIA sulfonate (sodium), Tanshinone IIA sulfonate], the Score came to 0.981.

For `Oc1cccc(-c2c3nc(c(-c4cccc(O)c4)c4ccc([nH]4)c(-c4cccc(O)c4)c4nc(c(-c5cccc(O)c5)c5ccc2[nH]5)CC4)C=C3)c1` [Temoporfin], the Score is 0.699. The result for `O=C(O)C(=O)c1cn(Cc2ccccc2)c2ccc(-c3ccc(OC(F)(F)F)cc3)cc12` [Tiplaxtinin] reads 0.836; that for `O=C(Nc1ccc(Cl)cc1)Nc1ccc(Cl)c(Cl)c1` [Triclocarban], 0.702; that for `Cc1cc(F)c(Nc2ncnc3cc(OCc4ccccc4)ccc23)cc1O.Cl` [ZM323881 (hydrochloride)], 0.946.

In the case of `COc1cc(C(=O)NS(=O)(=O)c2ccccc2C)ccc1Cc1cn(C)c2ccc(NC(=O)OC3CCCC3)cc12` [Zafirlukast], the Score is reported as 0.801. AS-2034178: the Score is 0.982. For the molecule TC-I-2000, the Score is 0.729.

Source of the values: publication PMC12289066, “Identification of glutathione transferase (GST P1) inhibitors via a high-throughput screening assay and implications as alternative treatment options for breast cancers” (PLOS One, 2025).
